One block for each molecule: values may come before it.
Experiments:
P2X purinoceptor 7 [1] = molecular target: T1, P2X purinoceptor 7 (Homo sapiens, UniProt Q99572); assay: Antagonist activity at P2X7 receptor in human LPS-stimulated monocytes assessed as inhibition of ATP-induced IL1-beta release by ELISA; type: functional, cell-based
T1 sequence (Q99572 whole entry): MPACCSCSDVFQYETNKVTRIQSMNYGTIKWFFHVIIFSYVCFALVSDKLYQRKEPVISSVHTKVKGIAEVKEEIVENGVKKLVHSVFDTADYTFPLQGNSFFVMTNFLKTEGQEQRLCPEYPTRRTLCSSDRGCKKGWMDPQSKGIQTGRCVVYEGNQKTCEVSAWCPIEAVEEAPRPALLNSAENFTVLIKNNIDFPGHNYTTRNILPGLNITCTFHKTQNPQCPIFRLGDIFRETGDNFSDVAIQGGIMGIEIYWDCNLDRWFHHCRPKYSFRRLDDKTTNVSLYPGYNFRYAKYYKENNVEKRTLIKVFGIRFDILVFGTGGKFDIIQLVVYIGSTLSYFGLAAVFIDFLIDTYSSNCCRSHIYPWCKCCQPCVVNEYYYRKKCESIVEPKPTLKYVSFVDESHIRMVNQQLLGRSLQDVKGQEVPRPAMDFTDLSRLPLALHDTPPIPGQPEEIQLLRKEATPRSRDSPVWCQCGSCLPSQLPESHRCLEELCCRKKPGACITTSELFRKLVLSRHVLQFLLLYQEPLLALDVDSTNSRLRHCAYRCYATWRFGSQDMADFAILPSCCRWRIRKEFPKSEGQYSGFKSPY

[2] = molecular target: T2, P2X purinoceptor 7 (Homo sapiens) (UniProt Q99572); assay: Antagonist activity at P2X7 receptor in human LPS-stimulated monocytes assessed as inhibition of ATP-induced IL1-beta release at 5 uM by ELISA; type: functional, cell-based
T2 sequence (whole entry): T1 sequence (Q99572 whole entry)

[3] = molecular target: T2, P2X purinoceptor 7 (Homo sapiens); assay: Antagonist activity at P2X7 receptor in human monocytes assessed as inhibition of LPS/ATP-induced IL1-beta release at 1 uM by ELISA; type: functional, cell-based
P2X purinoceptor 7 [4] = molecular target: T1, P2X purinoceptor 7; assay: Antagonist activity at P2X7 receptor expressed in HEK293 cells assessed as inhibition of ATP-induced YOPRO-1 uptake; type: functional, cell-based
[5] = Oral bioavailability in monkey; type: ADME, organism-based, Macaca mulatta; details: rhesus monkey, in vivo
[6] = Cmax in monkey; type: ADME, organism-based, Macaca mulatta; details: rhesus monkey, in vivo
[7] = Oral bioavailability in rat at 5 mg/kg; type: ADME, organism-based; details: in vivo
in vivo [8] = details: rat, plasma
in vivo [9] = details: dog, plasma
[10] = Volume of distribution at steady state in dog; type: ADME, organism-based, Canis lupus familiaris; details: in vivo, read-out: Vdss
[11] = Cmax in rat at 5 mg/kg, po; type: ADME, organism-based; design: dose 5 mg/kg, route oral; details: in vivo
[12] = Volume of distribution at steady state in monkey; type: ADME, organism-based, Macaca mulatta; details: rhesus monkey, in vivo; read-out: Vdss
[13] = Half life in rat; type: ADME, organism-based; details: in vivo
[14] = Half life in monkey; type: ADME, organism-based, Macaca mulatta; details: rhesus monkey, in vivo
[15] = Volume of distribution at steady state in rat; type: ADME, organism-based; details: in vivo, read-out: Vdss
[16] = Cmax in dog; type: ADME, organism-based, Canis lupus familiaris; details: in vivo
[17] = molecular target: T2, P2X purinoceptor 7 (Homo sapiens); assay: (§1) Antagonist activity at P2X7 receptor in human LPS-stimulated monocytes assessed as inhibition of ATP-induced IL1-beta release by ELISA in presence of human blood; type: functional, cell-based
P2X purinoceptor 7 [18] = molecular target: T1, P2X purinoceptor 7; assay: as §1; type: functional, cell-based
[19] = Oral bioavailability in dog; type: ADME, organism-based, Canis lupus familiaris; details: in vivo
[20] = Half life in dog; type: ADME, organism-based, Canis lupus familiaris; details: in vivo
[21] = Plasma clearance in monkey; details: rhesus monkey
[22] = Fraction unbound in human plasma; type: ADME, cell-free

IC50 (P2X purinoceptor 7 [1]): > 5000 nM
Compound: O=C(NCC1CCOCC1)c1cc(-n2ncc(=O)[nH]c2=O)ccc1Cl

inhibition [2]: 0%
Compound: O=C(NCCCc1ccccc1)c1cc(-n2ncc(=O)[nH]c2=O)ccc1Cl

inhibition [2]: 0%
Compound: CCCCNC(=O)c1cc(-n2ncc(=O)[nH]c2=O)ccc1Cl

inhibition [2]: 19%
Compound: CCCCC(CC)COC(=O)c1cc(-n2ncc(=O)[nH]c2=O)ccc1Cl (stereo not drawn)

IC50 (P2X purinoceptor 7 [1]): 700 nM
Compound: Cc1ccc(-n2ncc(=O)[nH]c2=O)cc1C(=O)NCC1(O)CCCCCC1

inhibition [2]: 0%
Compound: O=C(NCC1CCCC1)c1cc(-n2ncc(=O)[nH]c2=O)ccc1Cl

inhibition [3]: 20%
Compound: O=C(NCC1(O)CCCCCC1)c1cc(-n2ncc(=O)[nH]c2=O)ccc1F

inhibition [3]: 0%
Compound: N#Cc1ccc(-n2ncc(=O)[nH]c2=O)cc1C(=O)NCC1(O)CCCCCC1

IC50 (P2X purinoceptor 7 [4]): 15 nM
bioavailability [5]: 72%
Cmax [6]: 600 ng/mL
bioavailability [7]: 75%
clearance (in vivo [8]): 20 mL/min/kg
clearance (in vivo [9]): 3.8 mL/min/kg
Vd [10]: 0.6 L/kg
Cmax [11]: 1300 ng/mL
Vd [12]: 1.5 L/kg
half-life [13]: 3.2 h
half-life [14]: 3.4 h
Vd [15]: 8.5 L/kg
Cmax [16]: 7400 ng/mL
IC90 [17]: 1000 nM
IC50 (P2X purinoceptor 7 [18]): 447 nM
bioavailability [19]: 84%
IC50 (P2X purinoceptor 7 [1]): 83 nM
half-life [20]: 3.8 h
clearance [21]: 21 mL/min/kg
fraction unbound [22]: 0.18
Compound: O=C(NCC1(O)CCCCCC1)c1cc(-n2ncc(=O)[nH]c2=O)ccc1Cl

IC50 (P2X purinoceptor 7 [1]): 1100 nM
Compound: CCC(CC)CNC(=O)c1cc(-n2ncc(=O)[nH]c2=O)ccc1Cl

IC50 (P2X purinoceptor 7 [4]): 1100 nM
Compound: CCCCC(CC)CNC(=O)c1cc(-n2ncc(=O)[nH]c2=O)ccc1Cl (stereo not drawn)

inhibition [2]: 0%
Compound: CCCCC(CC)CNC(=O)c1cccc(-n2ncc(=O)[nH]c2=O)c1 (stereo not drawn)

inhibition [2]: 15%
Compound: O=C(NCc1ccccc1)c1cc(-n2ncc(=O)[nH]c2=O)ccc1Cl

inhibition [2]: 0%
Compound: CCCCC(CC)CN(C)C(=O)c1cc(-n2ncc(=O)[nH]c2=O)ccc1Cl (stereo not drawn)

— ChEMBL document CHEMBL1777794, “Optimization of the physicochemical and pharmacokinetic attributes in a 6-azauracil series of P2X7 receptor antagonists leading to the discovery of the clinical candidate CE-224,535” (Bioorg Med Chem Lett, 2011)
